Assay results: patent publication US7998681B2, “Diagnosis and therapy of antibody-mediated inflammatory auto-immune disorders” (Los Angeles Biomedical Research Institute at Harbor-UCLA …, priority 2000, dated 2011)

Tests used:
Format in all cases: cell-based, human
IL-16 [1] = assay: IL-16 ELISA of medium from treated fibroblasts, GD donors; details: GD, limit of detection 20 pg/ml
From the text: In addition to its therapeutic aspects, the present invention also relates to a diagnostic method for detecting the presence of antibody-activated fibroblasts in the patient. Applicants believe that several auto immune diseases or disorders are associated with antibody-activated fibroblasts. […] Altered levels of these chemoattractants can be detected in various biological samples in mammals, preferably humans. Levels of IL-16 and/or RANTES may be monitored in a patient, using standard techniques, as an indication of the deleterious aspects of the disease condition. Biological samples, including but not limited to serum, vitreous humor, aqueous humor, synovial fluid, and tissue, will be drawn from the patient using standard techniques. Particularly preferred are serum samples. The measurement of the IL-16 and RANTES levels may be monitored using any method possible to detect the levels of these proteins in biological samples. A preferred method of analysis is by ELISA as described in Sciaky, D. et al., J. Immunol. 164(7):3806-14, 2000. An ELISA specific for IL-16 can be used to assess the levels released by fibroblasts as described previously in Lim, K. G. et al., J. Immunol. 156(7): 2566-70, 1996. An ELISA specific for RANTES can be used according to the manufacturer's specification (BioSource Intl., Camarillo, Calif.).
(§1) The levels of IL-16 and RANTES were then assessed with specific ELISAs. The ELISA assay for IL-16 is performed essentially as discussed in Sciaky D., Brazer, W., Center, D. M., Cruikshank, W. W. and Smith, T. J.: Cultured human fibroblasts express constitutive IL-16 mRNA: Cytokine induction of active IL-16 protein synthesis through a caspase-3-dependent mechanism. J. Immunol. 164(7):3806-14, 2000). An ELISA (BioSource) for RANTES was performed according to the manufacturer's instructions.

[2] = tested on: dermal fibroblast strains; assay: Glycosaminoglycan (hyaluronan) synthesis in dermal fibroblasts; details: dermal fibroblast strains from the same donors
From the text: Applicants have also recently made a number of directly relevant observations of the disordered accumulation of hyaluronan in TAO. Orbital fibroblasts synthesize less hyaluronan constitutively than do dermal fibroblasts (Smith, T. J., Bahn, R. S. and Gorman, C. A.: Hormonal regulation of hyaluronate synthesis in cultured human fibroblasts: evidence for differences between retroocular and dermal fibroblasts. J. Clin. Endocrinol. Metab. 69:1019-1023, 1989). However, interferon-γ can modestly upregulate hyaluronan synthesis in orbital but not dermal fibroblasts (Smith, T. J., Bahn, R. S., Gorman, C. A. and Cheavens, M.: Stimulation of glycosaminoglycan accumulation by interferon gamma in cultured human retroocular fibroblasts. J. Clin. Endocrinol. Metab. 72:1169-1171, 1991). […] The macromolecular material was sensitive to Streptomyces hyaluronidase digestion, defining it as hyaluronan (Smith, T. J., Wang, H.-S. and Evans, C. H.: Leukoregulin is a potent inducer of hyaluronan synthesis in cultured orbital fibroblasts. Am. J. Physiol. 268:C382-C388, 1995, appended). The increase was substantially greater in magnitude than that observed in dermal fibroblast strains from the same donors (3-fold) and on the basis of pulse-chase studies could be attributed to changes in net synthesis.

IL-16 [3] = assay: IL-16 ELISA of medium from treated fibroblasts, normal donors; details: limit of detection 20 pg/ml
From the text: (§2) In addition to its therapeutic aspects, the present invention also relates to a diagnostic method for detecting the presence of antibody-activated fibroblasts in the patient. Applicants believe that several auto immune diseases or disorders are associated with antibody-activated fibroblasts. Applicants have shown that increased activation of fibroblasts by auto-antibodies can be monitored by determining the levels of IL-16 and/or RANTES production in a patient. Altered levels of these chemoattractants can be detected in various biological samples in mammals, preferably humans. Levels of IL-16 and/or RANTES may be monitored in a patient, using standard techniques, as an indication of the deleterious aspects of the disease condition. Biological samples, including but not limited to serum, vitreous humor, aqueous humor, synovial fluid, and tissue, will be drawn from the patient using standard techniques. Particularly preferred are serum samples. The measurement of the IL-16 and RANTES levels may be monitored using any method possible to detect the levels of these proteins in biological samples. A preferred method of analysis is by ELISA as described in Sciaky, D. et al., J. Immunol. 164(7):3806-14, 2000. An ELISA specific for IL-16 can be used to assess the levels released by fibroblasts as described previously in Lim, K. G. et al., J. Immunol. 156(7): 2566-70, 1996. An ELISA specific for RANTES can be used according to the manufacturer's specification (BioSource Intl., Camarillo, Calif.).
as §1, with “instructions. In an analysis of over a dozen strains, TAO specific IgG elicit substantial induction of IL-16 and RANTES and in no case were normal fibroblasts so affected.” for “instructions.”

RANTES = RANTES ELISA of medium from treated fibroblasts, normal donors; details: limit of detection 15 pg/ml
From the text: as §2
as §1, with “instructions. In an analysis of over a dozen strains, TAO specific IgG elicit substantial induction of IL-16 and RANTES and in no case were normal fibroblasts so affected.” for “instructions.”

Substance: IL-1β: pro-inflammatory cytokine used to activate fibroblasts
- IL-16 (IL-16 [1]; strain 1, Orbit): 71 ± 9 pg/mL
- IL-16 (IL-16 [1]; strain 2, Orbit): 82 ± 9 pg/mL
- IL-16 (IL-16 [1]; strain 3, Abdominal skin): 82 ± 9 pg/mL
- IL-16 (IL-16 [1]; strain 4, Orbit): 194 ± 29 pg/mL
- IL-16 (IL-16 [1]; strain 6, Neck skin): 116 ± 27 pg/mL
- IL-16 (IL-16 [1]; strain 7, Pretibial skin): 194 ± 29 pg/mL
- IL-16 (IL-16 [1]; strain 8, Pretibial skin): 79 ± 11 pg/mL
- IL-16 (IL-16 [1]; strain 9, Orbit): 218 ± 33 pg/mL
- IL-16 (IL-16 [1]; strain 10, Orbit): 246 ± 32 pg/mL
- IL-16 (IL-16 [1]; strain 11, Orbit): 94 ± 12 pg/mL
- up-regulation of glycosaminoglycan synthesis [2]: 3 fold
- IL-16 (IL-16 [3]; strain 12, Orbit): 56 ± 10 pg/mL
- IL-16 (IL-16 [3]; strain 14, Orbit): 68 ± 9 pg/mL
- IL-16 (IL-16 [3]; strain 15, Extremity Skin): 138 ± 15 pg/mL
- IL-16 (IL-16 [3]; strain 16, Extremity Skin): 98 ± 19 pg/mL
- RANTES (RANTES; strain 12, Orbit): 42 ± 9 pg/mL
- RANTES (RANTES; strain 14, Orbit): 79 ± 11 pg/mL
- RANTES (RANTES; strain 15, Extremity Skin): 173 ± 12 pg/mL
- RANTES (RANTES; strain 16, Extremity Skin): 125 ± 9 pg/mL
